Experimental data taken from patent EP0098136A2, “Primary and secondary alcohol dehydrogenase enzymes and the use thereof” (priority 1982, dated 1984).
“Also recorded” adds a separate entry of the source. Read-outs that look alike come from different tables or passages of the source.

Tests used:
[1] = test system: secondary alcohol dehydrogenase enzyme; test: Substrate and cofactor specificity of the purified enzyme; assay type: biochemical, Pseudomonas fluorescens NRRL B-1244; conditions: for oxidation rate / activity as substrate (in words): purified enzyme, NAD^+
Experimental: The rate of dehydrogenation of the primary and secondary alcohols tested was measured with a fluorescence spectrophotometer by following the formation of reduced NAD^+ (excitation at 340 nm, emission at 460 nm). […] The reaction was initiated by the addition of the substrate alcohol. The product aldehydes or ketones were identified by retention time comparisons and cochromatography with authentic standards using flame ionization gas chromatography (a stainless steel column was maintained isothermally at 110 °C). Specific oxidation rates were expressed as nmoles of product formed per min. per mg of protein.
The purified enzyme from step 5 of Example 2 was used in the procedure of Example 1 to oxidize primary and secondary alcohols, diols and aldehydes. The specificity of the dehydrogenase for the substrates is expressed as nmoles of product formed per min. per 85 µg of protein and as a percentage relative to the oxidation rate of 2-propanol (designated as 100% oxidation rate) in Table V.

[2] = test system: secondary alcohol dehydrogenase enzyme; test: Inhibition of secondary alcohol dehydrogenase activity (oxidation of 2-propanol in the presence of potential inhibitors); assay type: biochemical, Pseudomonas fluorescens NRRL B-1244
Experimental: The activity of the NAD^+-linked secondary alcohol dehydrogenase in each fraction was measured using a fluorescence spectrophotometer by monitoring the formation of reduced NAD^+ (excitation at 340 nm, emission at 460 nm). The assay system (3 ml) contained 150 µmole sodium phosphate buffer pH 7.0, 1.0 µmole NAD^+, a given amount of enzyme fraction, and 20 µ cmole 2-propanol substrate. […] Protein concentrations in each fraction were determined by the method of O.H. Lowry et al., J. Biol. Chem., 193, 255 (1951).
The oxidation of 2-propanol by the purified extract of secondary alcohol dehydrogenase enzyme was conducted in the presence of a lmM concentration of one of the metal chelating agents and thio-reagents listed in Table VI.

[3] = test system: secondary alcohol dehydrogenase
[4] = test system: secondary alcohol dehydrogenase enzyme; assay type: biochemical, Pseudomonas fluorescens NRRL B-1244
Experimental: The effect of NAD^+ and 2-propanol concentrations on the enzyme activity was studied at 25 °C in 0.05 M sodium phosphate buffer pH 7.0. 2-Propanol was kept at a saturated level (6.6 mM) for the determination of the Km value for NAD^+; and NAD^+ was maintained at a saturated level (lmM) for determining the Km value for 2-propanol.

[5] = 1 mM inhibitor, oxidation of 2-propanol by purified enzyme

CC(O)CCO (stereo not shown) [1,3-butanediol]
oxidation rate / activity as substrate (in words) [1]: highest activity

c1cnc2c(c1)ccc1cccnc12 [1,10-phenanthroline]
% Inhibition [2, 5]: 100%

CCC(C)O (stereo not shown) [2-butanol]
oxidation rate / activity as substrate (in words) [1]: highest oxidation rate; also recorded: highest activity
% of original activity ([3]; 0.9 M 2-butanol solution): 40%
% of its activity ([3]; 1.1 M 2-butanol solution): 30%

CC(C)O [2-propanol]
Km ([4]; pH 7, read-out: Km value for 2-propanol): 85 µM
oxidation rate / activity as substrate (in words) [1]: highest activity

O=C(O)c1cc(SSc2ccc([N+](=O)[O-])c(C(=O)O)c2)ccc1[N+](=O)[O-] [5,5'-dithiobis-(2-nitrobenzoate)]
inhibition of enzyme activity (in words) [2]: inhibited
% Inhibition [2, 5]: 100%

O=[N+]([O-])c1ccc(O)c2ncccc12 [5-nitro-8-hydroxyquinoline]
inhibition of enzyme activity (in words) [2]: inhibited
% Inhibition [2, 5]: 100%

[Cu+2] [Cu^2+]
% Inhibition [2, 5]: 10%

[Hg+2] [Hg^2+]
% Inhibition [2, 5]: 100%

CCN1C(=O)C=CC1=O [N-ethylmaleimide]
% Inhibition [2, 5]: 33%

NC(=O)c1ccc[n+]([C@@H]2O[C@H](COP(=O)([O-])OP(=O)(O)OC[C@H]3O[C@@H](n4cnc5c(N)ncnc54)[C@H](OP(=O)(O)O)[C@@H]3O)[C@@H](O)[C@H]2O)c1 [NADP^+]
oxidation rate with NADP^+ as cofactor relative to NAD^+ ([1]; NADP^+ as cofactor): about 50%

NC(=O)c1ccc[n+]([C@@H]2O[C@H](COP(=O)([O-])OP(=O)(O)OC[C@H]3O[C@@H](n4cnc5c(N)ncnc54)[C@H](O)[C@@H]3O)[C@@H](O)[C@H]2O)c1 [NAD^+, nicotinamide adenine dinucleotide]
Km ([4]; 25°C, 0.05 M sodium phosphate buffer pH 7.0, 2-propanol saturated (6.6 mM), read-out: Km value for NAD^+): 8.2 µM

CC(N)=O [acetamide]
% Inhibition [2, 5]: 0%

CC(C)=O [acetone]
rate of reduction of acetone to propanol relative to the forward reaction [1]: about 20%

O=C(O)CN(CCN(CC(=O)O)CC(=O)O)CC(=O)O [ethylenediamine tetraacetic acid (EDTA), ethylenediamine tetraacetic acid]
% Inhibition [2, 5]: 0%

c1c[nH]cn1 [imidazole]
% Inhibition [2, 5]: 0%

O=C(O)CI [iodoacetic acid]
% Inhibition [2]: 0%

O=C(O)c1cc[c]([Hg+])cc1.[OH-] [p-hydroxymercuribenzoate]
inhibition of enzyme activity (in words) [2]: inhibited
% Inhibition [2, 5]: 100%

NNC(N)=S [thiosemicarbazide]
% Inhibition [2, 5]: 44%

c1ccc(-c2ccccn2)nc1 [α,α'-dipyridyl]
% Inhibition [2, 5]: 40%
